Results: ChEMBL document CHEMBL5291721, “A preclinical secondary pharmacology resource illuminates target-adverse drug reaction associations of marketed drugs” (Nat Commun, 2023)

Tests used:
[1] = target: Neuronal acetylcholine receptor subunit alpha-4 (Homo sapiens, UniProt P43681)
[2] = target: Kappa-type opioid receptor (Homo sapiens, UniProt P41145)
Motilin receptor = Motilin receptor (Homo sapiens, UniProt O43193)
Estrogen receptor = target: T1, Estrogen receptor (Homo sapiens, UniProt P03372)
T1 sequence (P03372 whole entry): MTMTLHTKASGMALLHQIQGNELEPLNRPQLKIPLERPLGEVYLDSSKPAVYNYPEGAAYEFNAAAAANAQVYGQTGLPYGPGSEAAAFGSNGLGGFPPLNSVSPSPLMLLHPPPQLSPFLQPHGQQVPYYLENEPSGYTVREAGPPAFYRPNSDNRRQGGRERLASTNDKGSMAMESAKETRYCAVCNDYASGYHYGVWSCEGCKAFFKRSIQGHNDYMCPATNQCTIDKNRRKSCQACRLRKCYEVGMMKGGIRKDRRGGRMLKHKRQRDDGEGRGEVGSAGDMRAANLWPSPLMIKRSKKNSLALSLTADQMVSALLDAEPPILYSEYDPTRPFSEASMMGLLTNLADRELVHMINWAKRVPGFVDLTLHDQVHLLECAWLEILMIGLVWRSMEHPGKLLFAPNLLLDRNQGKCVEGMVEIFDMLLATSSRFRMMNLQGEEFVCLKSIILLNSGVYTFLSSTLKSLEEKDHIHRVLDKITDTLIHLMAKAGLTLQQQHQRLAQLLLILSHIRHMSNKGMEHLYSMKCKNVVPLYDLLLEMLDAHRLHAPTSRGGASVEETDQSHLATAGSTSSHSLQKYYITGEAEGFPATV

[3] = target: Voltage-dependent L-type calcium channel subunit alpha-1C (Rattus norvegicus, UniProt P22002); type: functional
Sequence of Voltage-dependent L-type calcium channel subunit alpha-1C (P22002 whole entry): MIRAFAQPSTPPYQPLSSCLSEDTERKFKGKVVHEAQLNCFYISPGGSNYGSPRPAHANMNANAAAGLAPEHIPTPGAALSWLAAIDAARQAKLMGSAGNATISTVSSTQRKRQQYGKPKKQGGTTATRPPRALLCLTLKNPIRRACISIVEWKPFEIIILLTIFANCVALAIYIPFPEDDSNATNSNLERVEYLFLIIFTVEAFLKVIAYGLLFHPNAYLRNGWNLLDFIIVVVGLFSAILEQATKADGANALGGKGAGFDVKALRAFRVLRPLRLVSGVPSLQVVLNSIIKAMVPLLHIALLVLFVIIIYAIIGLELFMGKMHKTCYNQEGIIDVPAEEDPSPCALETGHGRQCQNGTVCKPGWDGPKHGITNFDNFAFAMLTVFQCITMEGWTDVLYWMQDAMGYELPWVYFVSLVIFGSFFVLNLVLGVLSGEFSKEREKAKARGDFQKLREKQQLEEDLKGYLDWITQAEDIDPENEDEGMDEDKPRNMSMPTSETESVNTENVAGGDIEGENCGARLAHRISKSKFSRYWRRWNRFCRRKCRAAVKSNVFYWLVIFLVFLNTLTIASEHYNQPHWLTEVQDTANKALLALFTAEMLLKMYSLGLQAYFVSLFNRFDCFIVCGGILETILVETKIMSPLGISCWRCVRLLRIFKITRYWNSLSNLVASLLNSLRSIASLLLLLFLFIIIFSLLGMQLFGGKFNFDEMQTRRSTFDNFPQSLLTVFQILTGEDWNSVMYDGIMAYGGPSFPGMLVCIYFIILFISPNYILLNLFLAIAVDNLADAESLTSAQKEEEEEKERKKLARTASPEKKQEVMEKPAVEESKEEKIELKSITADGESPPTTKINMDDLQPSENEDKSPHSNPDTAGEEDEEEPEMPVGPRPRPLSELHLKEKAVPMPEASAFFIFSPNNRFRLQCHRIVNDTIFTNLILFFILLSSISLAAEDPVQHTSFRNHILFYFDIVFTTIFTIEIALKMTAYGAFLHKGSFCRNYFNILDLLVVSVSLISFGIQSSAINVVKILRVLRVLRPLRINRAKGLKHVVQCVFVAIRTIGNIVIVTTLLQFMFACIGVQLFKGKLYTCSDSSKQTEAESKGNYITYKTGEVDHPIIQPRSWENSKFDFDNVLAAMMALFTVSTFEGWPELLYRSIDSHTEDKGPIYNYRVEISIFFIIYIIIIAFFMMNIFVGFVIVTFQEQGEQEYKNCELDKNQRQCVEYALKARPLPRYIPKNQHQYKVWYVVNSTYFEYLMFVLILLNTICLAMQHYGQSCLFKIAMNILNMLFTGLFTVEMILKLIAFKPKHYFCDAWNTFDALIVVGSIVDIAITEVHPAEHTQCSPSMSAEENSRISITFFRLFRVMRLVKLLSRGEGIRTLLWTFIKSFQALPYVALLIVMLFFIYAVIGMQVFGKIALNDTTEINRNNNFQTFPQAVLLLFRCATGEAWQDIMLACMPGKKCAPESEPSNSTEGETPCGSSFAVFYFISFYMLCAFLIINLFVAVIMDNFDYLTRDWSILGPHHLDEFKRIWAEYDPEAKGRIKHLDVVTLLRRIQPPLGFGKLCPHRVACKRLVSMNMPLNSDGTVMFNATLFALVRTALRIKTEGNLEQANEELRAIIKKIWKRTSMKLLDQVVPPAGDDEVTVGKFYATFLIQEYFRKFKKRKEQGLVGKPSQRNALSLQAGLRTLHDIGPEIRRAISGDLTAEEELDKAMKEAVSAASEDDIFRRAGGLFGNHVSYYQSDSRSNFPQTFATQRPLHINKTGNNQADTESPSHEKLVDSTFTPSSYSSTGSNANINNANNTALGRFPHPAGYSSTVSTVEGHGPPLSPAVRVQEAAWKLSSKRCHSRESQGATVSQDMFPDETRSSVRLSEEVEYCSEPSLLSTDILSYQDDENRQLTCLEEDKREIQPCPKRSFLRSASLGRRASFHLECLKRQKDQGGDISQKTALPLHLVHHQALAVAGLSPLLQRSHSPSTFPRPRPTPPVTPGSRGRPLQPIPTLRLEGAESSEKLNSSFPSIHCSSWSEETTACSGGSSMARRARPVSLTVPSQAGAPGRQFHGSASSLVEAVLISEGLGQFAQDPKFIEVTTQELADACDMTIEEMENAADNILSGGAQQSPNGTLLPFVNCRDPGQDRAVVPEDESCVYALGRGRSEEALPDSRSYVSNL

[4] = target: Sodium-dependent noradrenaline transporter (Homo sapiens, UniProt P23975)
Sequence of Sodium-dependent noradrenaline transporter (P23975 whole entry): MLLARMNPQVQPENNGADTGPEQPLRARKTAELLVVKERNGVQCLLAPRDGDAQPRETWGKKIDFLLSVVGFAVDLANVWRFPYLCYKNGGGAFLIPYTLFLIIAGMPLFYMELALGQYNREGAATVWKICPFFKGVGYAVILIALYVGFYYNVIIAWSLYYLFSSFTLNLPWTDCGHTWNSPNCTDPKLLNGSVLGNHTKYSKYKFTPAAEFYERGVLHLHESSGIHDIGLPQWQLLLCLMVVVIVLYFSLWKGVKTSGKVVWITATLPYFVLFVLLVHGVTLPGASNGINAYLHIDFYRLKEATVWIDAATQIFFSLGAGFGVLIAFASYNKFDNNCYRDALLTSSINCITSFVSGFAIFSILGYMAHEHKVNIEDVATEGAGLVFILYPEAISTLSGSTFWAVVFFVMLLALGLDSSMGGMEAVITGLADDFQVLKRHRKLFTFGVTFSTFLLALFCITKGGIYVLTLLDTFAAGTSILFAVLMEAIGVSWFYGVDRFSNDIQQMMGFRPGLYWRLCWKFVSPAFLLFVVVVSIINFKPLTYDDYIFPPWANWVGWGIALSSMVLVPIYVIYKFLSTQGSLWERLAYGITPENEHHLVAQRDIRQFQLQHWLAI

B2 bradykinin receptor = target: T2, B2 bradykinin receptor (Homo sapiens, UniProt P30411)
T2 sequence (P30411 whole entry): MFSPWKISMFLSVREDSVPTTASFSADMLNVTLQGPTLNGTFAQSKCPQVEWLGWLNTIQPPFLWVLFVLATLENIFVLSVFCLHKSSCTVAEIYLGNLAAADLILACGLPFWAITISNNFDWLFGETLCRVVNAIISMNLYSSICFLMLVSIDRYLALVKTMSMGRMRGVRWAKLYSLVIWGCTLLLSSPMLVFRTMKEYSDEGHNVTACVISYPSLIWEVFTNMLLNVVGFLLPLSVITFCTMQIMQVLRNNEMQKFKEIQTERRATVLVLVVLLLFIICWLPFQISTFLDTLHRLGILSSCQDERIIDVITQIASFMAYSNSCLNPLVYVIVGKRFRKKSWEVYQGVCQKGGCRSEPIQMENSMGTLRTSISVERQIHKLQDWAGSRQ

Adenosine receptor A3 = target: T3, Adenosine receptor A3 (Homo sapiens, UniProt P0DMS8)
T3 sequence (P0DMS8 whole entry): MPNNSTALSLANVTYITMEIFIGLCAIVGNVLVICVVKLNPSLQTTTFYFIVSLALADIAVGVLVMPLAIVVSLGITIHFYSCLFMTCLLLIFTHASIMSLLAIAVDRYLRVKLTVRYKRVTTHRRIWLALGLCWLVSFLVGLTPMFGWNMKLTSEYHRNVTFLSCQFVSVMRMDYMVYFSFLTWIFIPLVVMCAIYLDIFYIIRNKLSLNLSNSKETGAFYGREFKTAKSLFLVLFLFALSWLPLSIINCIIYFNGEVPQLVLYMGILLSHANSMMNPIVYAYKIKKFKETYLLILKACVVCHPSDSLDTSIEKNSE

[5] = target: Beta-2 adrenergic receptor (Homo sapiens, UniProt P07550)
Sequence of Beta-2 adrenergic receptor (P07550 whole entry): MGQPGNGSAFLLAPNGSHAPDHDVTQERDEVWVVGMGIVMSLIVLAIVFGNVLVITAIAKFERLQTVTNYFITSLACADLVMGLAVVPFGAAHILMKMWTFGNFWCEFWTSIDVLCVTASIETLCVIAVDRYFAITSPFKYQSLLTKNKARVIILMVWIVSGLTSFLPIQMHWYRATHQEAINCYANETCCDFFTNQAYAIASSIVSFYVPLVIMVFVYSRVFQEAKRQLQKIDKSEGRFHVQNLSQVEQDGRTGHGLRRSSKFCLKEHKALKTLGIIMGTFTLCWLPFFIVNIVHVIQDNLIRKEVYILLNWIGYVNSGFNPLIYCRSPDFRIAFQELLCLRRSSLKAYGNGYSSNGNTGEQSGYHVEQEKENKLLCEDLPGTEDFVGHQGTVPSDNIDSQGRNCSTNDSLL

Histamine H1 receptor = Histamine H1 receptor (Homo sapiens, UniProt P35367)
[6] = target: T4, Muscarinic acetylcholine receptor M2 (Homo sapiens, UniProt P08172); type: functional, cell-based
T4 sequence (P08172 whole entry): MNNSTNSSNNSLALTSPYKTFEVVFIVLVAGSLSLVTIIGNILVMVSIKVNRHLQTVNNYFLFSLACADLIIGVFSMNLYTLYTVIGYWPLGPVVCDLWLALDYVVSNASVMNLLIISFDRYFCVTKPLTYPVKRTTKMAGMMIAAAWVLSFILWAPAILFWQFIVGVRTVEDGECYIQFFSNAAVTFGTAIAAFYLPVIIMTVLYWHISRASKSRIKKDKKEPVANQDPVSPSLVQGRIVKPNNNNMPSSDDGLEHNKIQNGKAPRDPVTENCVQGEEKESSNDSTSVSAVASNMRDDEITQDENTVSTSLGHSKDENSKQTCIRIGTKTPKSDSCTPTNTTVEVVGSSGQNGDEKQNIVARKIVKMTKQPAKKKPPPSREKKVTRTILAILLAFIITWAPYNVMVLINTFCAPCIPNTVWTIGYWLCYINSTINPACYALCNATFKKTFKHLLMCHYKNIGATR

[7] = target: T5, Gastrin/cholecystokinin type B receptor (Homo sapiens, UniProt P32239)
T5 sequence (P32239 whole entry): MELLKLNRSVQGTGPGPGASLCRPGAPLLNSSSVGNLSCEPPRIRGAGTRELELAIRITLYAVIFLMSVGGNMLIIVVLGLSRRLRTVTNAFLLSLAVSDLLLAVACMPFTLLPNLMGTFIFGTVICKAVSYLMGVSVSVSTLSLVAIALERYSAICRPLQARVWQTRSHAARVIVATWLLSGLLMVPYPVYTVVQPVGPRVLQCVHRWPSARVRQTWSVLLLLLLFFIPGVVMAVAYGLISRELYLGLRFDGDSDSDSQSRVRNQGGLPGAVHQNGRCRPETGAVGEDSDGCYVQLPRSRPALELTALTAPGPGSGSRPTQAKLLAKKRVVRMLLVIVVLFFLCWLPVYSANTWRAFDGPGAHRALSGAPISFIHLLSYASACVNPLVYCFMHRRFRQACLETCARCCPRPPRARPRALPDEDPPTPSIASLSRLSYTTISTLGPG
Note: assay procedure not described here.

Sequence of Motilin receptor (O43193 whole entry): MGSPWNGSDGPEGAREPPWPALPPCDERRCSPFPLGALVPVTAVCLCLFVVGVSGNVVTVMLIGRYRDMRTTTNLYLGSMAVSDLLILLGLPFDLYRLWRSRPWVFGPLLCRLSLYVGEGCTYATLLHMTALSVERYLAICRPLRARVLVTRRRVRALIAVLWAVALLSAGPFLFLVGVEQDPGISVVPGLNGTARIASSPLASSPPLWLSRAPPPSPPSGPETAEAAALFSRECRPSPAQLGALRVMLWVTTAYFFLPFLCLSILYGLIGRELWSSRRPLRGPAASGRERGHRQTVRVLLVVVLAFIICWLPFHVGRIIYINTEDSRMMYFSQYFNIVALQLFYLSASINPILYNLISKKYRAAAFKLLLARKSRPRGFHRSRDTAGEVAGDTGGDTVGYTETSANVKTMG
Sequence of Kappa-type opioid receptor (P41145 whole entry): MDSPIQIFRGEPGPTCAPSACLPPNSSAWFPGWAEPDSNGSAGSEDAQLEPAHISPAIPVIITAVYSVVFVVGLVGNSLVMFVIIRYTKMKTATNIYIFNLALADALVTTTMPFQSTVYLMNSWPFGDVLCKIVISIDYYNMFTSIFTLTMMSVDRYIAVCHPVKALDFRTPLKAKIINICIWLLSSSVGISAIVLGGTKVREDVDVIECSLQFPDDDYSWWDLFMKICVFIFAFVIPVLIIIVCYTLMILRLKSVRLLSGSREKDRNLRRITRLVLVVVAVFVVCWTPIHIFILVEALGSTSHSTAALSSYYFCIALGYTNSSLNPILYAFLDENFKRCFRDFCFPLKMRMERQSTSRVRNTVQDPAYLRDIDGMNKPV
Sequence of Neuronal acetylcholine receptor subunit alpha-4 (P43681 whole entry): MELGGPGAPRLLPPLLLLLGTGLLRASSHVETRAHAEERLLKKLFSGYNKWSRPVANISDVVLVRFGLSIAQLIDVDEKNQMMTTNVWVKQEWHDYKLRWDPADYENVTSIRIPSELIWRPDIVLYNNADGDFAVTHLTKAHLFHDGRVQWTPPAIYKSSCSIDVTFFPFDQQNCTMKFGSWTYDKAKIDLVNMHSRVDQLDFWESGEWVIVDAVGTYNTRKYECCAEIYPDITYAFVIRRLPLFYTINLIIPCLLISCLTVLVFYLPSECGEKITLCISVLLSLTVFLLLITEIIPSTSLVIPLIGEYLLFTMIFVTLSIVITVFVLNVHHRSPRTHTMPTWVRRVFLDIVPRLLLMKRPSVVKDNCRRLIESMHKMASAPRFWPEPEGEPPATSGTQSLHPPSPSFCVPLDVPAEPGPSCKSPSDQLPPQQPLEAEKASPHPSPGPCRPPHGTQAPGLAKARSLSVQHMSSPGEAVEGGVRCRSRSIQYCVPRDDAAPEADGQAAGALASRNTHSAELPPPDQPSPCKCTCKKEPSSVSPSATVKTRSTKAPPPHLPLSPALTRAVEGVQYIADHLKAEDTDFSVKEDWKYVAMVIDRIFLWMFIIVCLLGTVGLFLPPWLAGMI

Row | AC50 [1] [µM] | AC50 [2] [µM] | AC50 (Motilin receptor) [µM] | AC50 (Estrogen receptor) [µM] | AC50 [3] [µM] | AC50 [4] [µM] | AC50 (B2 bradykinin receptor) [µM] | AC50 (Adenosine receptor A3) [µM] | AC50 [5] [µM] | AC50 (Histamine H1 receptor) [µM] | AC50 [6] [µM] | AC50 [7] [µM] | Compound
1 | > 10 | > 10 | > 10 | > 30 | > 10 | > 10 | > 10 | > 10 | > 10 | > 10 | > 10 |  | CC(=O)OCC(=O)[C@@]1(O)CC[C@H]2[C@@H]3CCC4=CC(=O)CC[C@]4(C)C3=CC[C@@]21C [ANECORTAVE ACETATE]
2 | > 10 | > 10 | > 10 | > 30 | > 10 | > 30 | > 30 | 26.2 | > 10 | > 10 |  | > 30 | CC#CCn1c(N2CCC[C@@H](N)C2)nc2c1c(=O)n(Cc1nc(C)c3ccccc3n1)c(=O)n2C [LINAGLIPTIN]
3 | > 10 | > 10 | > 10 | > 10 | > 10 | > 10 | > 10 | > 10 | > 10 | > 10 | > 10 |  | CC(=O)Nc1c(I)c(C(=O)N[C@H]2C(O)O[C@H](CO)[C@@H](O)[C@@H]2O)c(I)c(N(C)C(C)=O)c1I (stereo not given in full) [METRIZAMIDE]

The remaining lines, values behind:

Row | Compound | AC50 [1] [µM] | AC50 [2] [µM] | AC50 (Motilin receptor) [µM] | AC50 (Estrogen receptor) [µM] | AC50 [3] [µM] | AC50 [4] [µM] | AC50 (B2 bradykinin receptor) [µM] | AC50 (Adenosine receptor A3) [µM] | AC50 [5] [µM] | AC50 (Histamine H1 receptor) [µM] | AC50 [6] [µM] | AC50 [7] [µM]
4 | Clc1ccc(C(Cn2ccnc2)OCc2ccc(Sc3ccccc3)cc2)c(Cl)c1 (stereo not given) [FENTICONAZOLE] | > 10 | 2.5 | 23 | > 10 | 12 |  | > 30 | 6.4 | > 30 | > 30 | > 30 | > 30
5 | CCCC[C@H](C)C[C@H](O)/C=C/[C@H]1[C@H](O)CC(=O)[C@@H]1CCCC/C=C/C(=O)O [LIMAPROST] | > 30 | > 30 | > 30 | > 30 |  | > 30 | > 30 | > 30 |  | > 30 | > 30 | > 30
6 | Cc1ccc(NC(=O)C2(c3ccc4c(c3)OC(F)(F)O4)CC2)nc1-c1cccc(C(=O)O)c1 [LUMACAFTOR] | > 30 | > 30 | > 30 | > 30 |  | > 30 | > 30 | 15 |  | > 30 | > 30 | > 10
7 | CCOC(=O)Nc1ccc2c(c1)N(C(=O)CCN1CCOCC1)c1ccccc1S2 [MORICIZINE] | > 30 | > 30 | > 30 | > 30 |  | > 30 | > 30 | > 30 |  | > 30 | > 30 | > 30
8 | CC(=O)O[C@H]1C[C@@H]2CC[C@@H]3[C@H](CC[C@@]4(C)[C@H]3C[C@H]([N+]3(C)CCCCC3)[C@@H]4OC(C)=O)[C@@]2(C)C[C@@H]1[N+]1(C)CCCCC1 [PANCURONIUM] | > 10 | > 10 | > 10 | > 10 | > 10 | > 10 | > 10 | > 10 | > 10 | > 10 | > 10 | 
